Assay results: paper PMC11352273, “The Proapoptotic Action of Pyrrolidinedione–Thiazolidinone Hybrids towards Human Breast Carcinoma Cells Does Not Depend on Their Genotype” (Cancers, 2024)
Values joined by “and” are separate entries in the source; they are usually repeats but may differ in a detail not shown here. Equal values may be shown once. Read-outs that look alike come from different tables or passages of the source.

Columns and labels:
MDA-MB-231 cells [1] = experiment: Annexin V/PI flow cytometry of apoptosis; type: cell-based, human; conditions: MDA-MB-231, 24 h
Protocol: (§1) Cells were washed twice with cold PBS and resuspended in the Binding Buffer from the Kit. The FITC Annexin V and propidium iodide (PI) were added to 100 µL of cell suspension and incubated for 15 min at room temperature, protected from light. Then, 300 µL of Binding Buffer was added, and samples were analyzed using a flow cytometer. A total of 10,000 events were measured. The FACSDiva software (Version 6.1.3, BD Biosciences Systems, San Jose, CA, USA) was applied to analyze all flow cytometry data. The BD Cytometer Setup and Tracking Beads (BD Biosciences, San Diego, CA, USA) were used for the calibration of the flow cytometer.

MCF-7 cells [2] = experiment: Annexin V/PI flow cytometry of apoptosis; type: cell-based, human; conditions: MCF-7, 24 h
Protocol: as §1

MCF-10A cells = experiment: MTT assay; type: cell-based, human; conditions: Homo sapiens, MCF-10A, MCF-10A
Protocol: (§2) The MCF-7 and MDA-MB-231 cells were cultured in the DMEM medium containing 10% of the FBS, HCC1954, T-47D, and 4T1 cells in the RPMI-1640 medium with the addition of 10% of the FBS, and MCF-10A cells in MEGM Mammary Epithelial Cell Growth Medium BulletKit supplemented with penicillin/streptomycin cocktail and 5% of horse serum. The cells were cultured in a […] atmosphere at 5% CO2 and 37 °C. After trypsinization, cells were counted using a Scepter 3.0 handheld automated cell counter (Millipore, Burlington, MA, USA).
(§3) The MTT test was used to assess the metabolic activity of cells treated with the investigated substances following the Sigma-Aldrich manufacturer’s instructions. Briefly, compounds were added in 100 µL of the cultural medium, and cells were incubated for the next 24 and 48 h. Doxorubicin was used as a reference drug. The DMSO was added to dissolve the crystals of formazan. We used the ThermoScientific Evolution 201 UV–VIS spectrophotometer (ThermoFisher Scientific, Waltham, MA, USA) to measure the absorbance of formazan at 570 nm. The initial value of the relative number of cells in control (under 0.1% of the DMSO) was accepted as 100%. We used GraphPad Prism Version 9 to calculate the half-maximal inhibition concentration (IC50) of the studied compounds (the concentration of the drug that reduced cell viability by 50%).

[3] = test system: ICAM-1 in MDA-MB-231 cells; experiment: ICAM-1 ELISA in culture supernatants; type: cell-based, human; conditions: for ICAM-1 concentration: 2 µM (highest dose), control 841.55 pg/mL
Protocol: (§4) In order to determine the Beclin-1 concentration in the cell lysates, the SimpleStep ELISA (Abcam, Cambridge, UK) Kit was used. MMP-2, MMP-9, and ICAM-1 concentrations were measured in culture supernatants using high-sensitivity human SimpleStep ELISA kits (Abcam, Cambridge, UK) according to the manufacturer’s protocols. The LC3B ELISA kit (BT LAB, Shanghai, China) was used to check the protein concentration in cell lysates from analyzed breast cancer cells. The procedure for preparing the samples was shown previously.

[4] = test system: MMP-9 in MDA-MB-231 cells; experiment: MMP-9 ELISA in culture supernatants; type: cell-based, human; conditions: MDA-MB-231, 24 h, all examined doses
Protocol: as §4

[5] = test system: MAP1LC3B in MDA-MB-231 cells; experiment: qPCR gene expression; type: cell-based, human; conditions: MDA-MB-231, 24 h, 1 µM
Protocol: (§5) Total RNA was isolated using the RNeasy Mini Kit (Qiagen, Venlo, The Netherlands) according to the manufacturer’s protocol and quantified on a NanoDrop spectrophotometer (NanoDrop™ One/OneC, ThermoFisher, Waltham, MA, USA). Next, 1 μg of RNA from every sample was reverse transcribed using a High-Capacity cDNA Reverse Transcription Kit (ThermoFisher, Waltham, MA, USA) according to the standard manufacturer’s instructions. The expression of genes, namely MAP1LC3b (Bio-Rad, Hercules, CA, USA) and BECN1 (Bio-Rad, Hercules, CA, USA), was evaluated using SsoAdvanced Universal SYBR Green Supermix (Bio-Rad, Hercules, CA, USA) on the StepOne Plus system (ThermoFisher, Waltham, MA, USA). StepOne Software v2.3 (Thermo Fisher Scientific, Waltham, MA, USA) was used for results calculations. The results were normalized to GAPDH (Bio-Rad, Hercules, CA, USA) and untreated cells (control). Data were presented as a relative expression using the 2^−ΔΔCt method.

BECN1 in MCF-7 cells = experiment: qPCR gene expression; type: cell-based, human; conditions: MCF-7, 24 h, 1 µM
Protocol: as §5

[6] = test system: BECN1 in MDA-MB-231 cells; experiment: qPCR gene expression; type: cell-based, human; conditions: MDA-MB-231, 24 h, 1 µM
Protocol: as §5

MAP1LC3B in MCF-7 cells = experiment: qPCR gene expression; type: cell-based, human; conditions: MCF-7, 24 h, 1 µM
Protocol: as §5

MDA-MB-231 cells [7] = experiment: MTT assay; type: cell-based; conditions: Homo sapiens, read-out: IC50, µM (M ± SD)
Protocol: as §2, §3

HCC1954 cells = experiment: MTT assay; type: cell-based; conditions: Homo sapiens, read-out: IC50, µM (M ± SD)
Protocol: as §2, §3

MCF-7 cells [8] = experiment: MTT assay; type: cell-based; conditions: Homo sapiens, read-out: IC50, µM (M ± SD)
Protocol: as §2, §3

T-47D cells = experiment: MTT assay; type: cell-based; conditions: Homo sapiens, T47D, read-out: IC50, µM (M ± SD)
Protocol: as §2, §3

[9] = test system: MMP-2 in MDA-MB-231 cells; experiment: MMP-2 ELISA in culture supernatants; type: cell-based, human; conditions: MDA-MB-231, 24 h, 2 μM; control 1055.21 pg/mL
Protocol: as §4

MMP-2 in MCF-7 cells = experiment: MMP-2 ELISA in culture supernatants; type: cell-based, human; conditions: MCF-7, 24 h, control 610.57 pg/mL
Protocol: as §4

[10] = 24 h, 24 h, read-out: IC50, µM (M ± SD)
[11] = 48 h, 48 h, read-out: IC50, µM (M ± SD)

IC50 (MDA-MB-231 cells [7]; MDA-MB-231, 24 h) [µM] | IC50 (MDA-MB-231 cells [7]; MDA-MB-231, 48 h) [µM] | IC50 (HCC1954 cells; HCC1954, 24 h) [µM] | IC50 (HCC1954 cells; HCC1954, 48 h) [µM] | IC50 (MCF-7 cells [8]; MCF7, MCF-7, 24 h) [µM] | IC50 (MCF-7 cells [8]; MCF7, MCF-7, 48 h) [µM] | SMILES | early apoptotic cells (MDA-MB-231 cells [1]; 1 µM) [%] | late apoptotic cells (MDA-MB-231 cells [1]; 1 µM) [%] | necrotic cells (MDA-MB-231 cells [1]; 1 µM) | early apoptotic cells (MCF-7 cells [2]; 1 µM) [%] | late apoptotic cells (MCF-7 cells [2]; 1 µM) [%] | necrotic cells (MCF-7 cells [2]; 1 µM) | IC50 (MCF-10A cells; [10]) [µM] | IC50 (MCF-10A cells; [11]) [µM] | ICAM-1 concentration ([3]; MDA-MB-231, 24 h) [pg/mL] | MMP-9 concentration versus control [4] | MAP1LC3B gene expression compared to control cells [5] | BECN1 gene expression compared to control cells (BECN1 in MCF-7 cells) | BECN1 gene expression compared to control cells [6] | MAP1LC3B gene expression compared to control cells (MAP1LC3B in MCF-7 cells) | other results
6.18 ± 0.08 | 1.09 ± 0.09 | 1.9 ± 0.11 | 1.15 ± 0.16 | 3.47 ± 0.49 | 0.18 ± 0.07 | COc1cccc2c1C(=O)c1c(O)c3c(c(O)c1C2=O)C[C@@](O)(C(=O)CO)C[C@@H]3O[C@H]1C[C@H](N)[C@H](O)[C@H](C)O1 [Dox, doxorubicin, reference compound] | 0.10 ± 0.01 | 42.20 ± 17.25 | 51.25 ± 3.36% and 51.25% | 0.55 ± 0.07 | 60.60 ± 7.35 | 31.75 ± 5.59% and 31.75% | 15.9 ± 0.91 | 0.23 ± 0.05 | 583.04 | decreased | significantly increased | significantly increased | significantly increased | significantly increased | ICAM-1 concentration versus control ([3]; MDA-MB-231, 24 h, 1.0 and 1.5 µM): increased; IC50 (T-47D cells; 24 h): 3.66 ± 0.33 µM; IC50 (T-47D cells; 48 h): 2.31 ± 0.24 µM; concentration of MMP-2 [9]: 470.57 pg/mL; concentration of MMP-2 (MMP-2 in MCF-7 cells; 2 μM): 425.40 pg/mL
3.86 ± 0.24 | 1.37 ± 0.15 | 2.52 ± 0.65 | 2.25 ± 0.64 | 2.34 ± 0.16 | 1.43 ± 0.18 | O=C1CC(N2C(=O)C(=CC(Cl)=Cc3ccc([N+](=O)[O-])cc3)SC2=S)C(=O)N1c1ccc(O)cc1 (centres unmarked) [Les-6287, 1-(4-hydroxyphenyl)-3-[5-[2-chloro-3-(4-nitrophenyl)prop-2-enylidene]-4-oxo-2-thioxothiazolidine-3-yl]pyrrolidine-2,5-dione] | 2.10 ± 0.14 | 5.10 ± 0.49 | 0.90 ± 0.02% | 3.85 ± 1.20 | 21.60 ± 0.78 | 0.50 ± 0.24% | 93 ± 2.29 | 64.6 ± 0.68 | 157.25 | decreased | did not affect | did not affect | did not affect | did not affect | early apoptotic cells (MDA-MB-231 cells [1]; 1.5 µM): 5.65 ± 0.92%; late apoptotic cells (MDA-MB-231 cells [1]; 1.5 µM): 29.00 ± 9.76%; necrotic cells (MDA-MB-231 cells [1]; 1.5 µM): 4.50 ± 1.82%; necrotic cells, range (MDA-MB-231 cells [1]; 1 and 1.5 µM): 0.90–4.50%; early apoptotic cells (MCF-7 cells [2]; 1.5 µM): 2.30 ± 0.42%; late apoptotic cells (MCF-7 cells [2]; 1.5 µM): 29.35 ± 6.43%; necrotic cells (MCF-7 cells [2]; 1.5 µM): 0.30 ± 0.11%; necrotic cells, range (MCF-7 cells [2]; 1 and 1.5 µM): 0.30–0.50%; IC50 (MCF-10A cells; time point not specified (24 and 48 h), read-out: IC50 towards MCF-10A cells): > 64.6 µM; inhibitory effect on ICAM-1 concentration relative to doxorubicin ([3]; MDA-MB-231): almost four times stronger; IC50 (T-47D cells; 24 h): 3.11 ± 0.19 µM; IC50 (T-47D cells; 48 h): 1.74 ± 0.25 µM; concentration of MMP-2 [9]: 711.74 pg/mL; concentration of MMP-2 (MMP-2 in MCF-7 cells; compound concentration not stated (most significant decrease)): 395.91 pg/mL
